Test [1] concerns the target T1, Src (p60^c-src, partially purified) (Homo sapiens, UniProt P12931).
T1 construct: purchased UBI, Upstate Biotech, Inc
The test is described as follows: SRC-Inhibitor-Assay, time-resolved fluorescence kinase assay (Src). In kind it is biochemical. Conditions: ATP 5 μM; enzyme pre-incubated with inhibitor 15 min at 15° C. The method, then:
(§1) The activity of the compounds according to this invention as inhibitors for the src-family tyrosine kinases was shown by using the following assay. • SRC-Inhibitor-Assay Parameters: • Reaction mixture: • ATP 5 μM • Peptide (Ro+Ja133-Ro): 10 μM • Ja133-Ro 196 nM • Ro 9.8 μM • PT66 230 ng/ml • Assay buffer: 4 mM MgCl2 • 2 mM TCEP • 50 mM HEPES • 0.1% Tween 20 • pH 7.3 • Enzyme: 2.5 U/ml • Inhibitor: max. 25 μM • min. 0.42 nM
(§2) Material: • Eu-labelled phosphotyrosine antibody: for Lck Cisbio Mab PT66-K, • for Src EG&G Wallac PT66 Eu-W1024 (all commercially available). • Peptides: Ro: NH2-A-E-E-E-I-Y-G-E-F-E-A-K-K-K-K-CONH2, and • Ja133-Ro: Ja133-G-Aminocaprylic acid-A-E-E-E-I-Y-G-E-F-E-A-K-K-K-K-CONH2, wherein Ja133 is LightCycler-Red 640-N-hydroxy succinimide ester; • whereby both peptides were synthesized by an optimized solid phase peptide synthesis protocol (Merrifield, Fed. Proc. Fed. Amer. Soc. Exp. Biol. 21 (1962) 412) on a Zinsser SMP350 peptide synthesizer. Shortly, the peptide was assembled on 160 mg (22.8 μmol scale) of a Rink-Linker modified polystyrene solid phase by repeatedly conjugating an twenty fold excess of amino acids each protected by temporary piperidine labile Fmoc- and permanent acid labile tert-Bu-, BOC- and O-tert-Bu-groups depending on the side chain function. The substrate sequence AEEEIYGEFEAKKKK was N-terminal additionally mounted with the spacer amino acids Aminocaprylic acid and Glycin. After cleavage of the N-terminal temporary protecting group the still attached and protected peptide was labeled with a 1.5 fold amount of LightCycler-Red 640-N-hydroxy succinimide ester (purchased from Roche Diagnostics GmbH) and triethylamine. After 3 hrs. the resin was washed with Dimethylformamide and Isopropanol until the eluates of the blue resin got colourless. […] The substrate was finally isolated by a preparative reverse phase HPLC purification.
(§3) The purification yielded 12.2 mg RP-HPLC single peak pure blue material (lyophilisate). The identity was proven by MALDI mass spectroscopy [2720.0]. • Enzymes: Upstate Lck (p56^kk, active), Upstate Src (p60^c-src, partially purified) were purchased from UBI, Upstate Biotech, Inc.
(§4) Time-resolved Fluorescence Assay: Reader: Perkin Elmer, Wallac Viktor 1420-040 multilabel counter; Liquid handling system: Beckman Coulter, Biomek 2000.
(§5) ATP, Tween™ 20, 4-(2-hydroxyethyl)-1-piperazineethanesulfonic acid (HEPES) were purchased from Roche Molecular Biochemicals, MgCl2 and MnCl2 were purchased from Merck Eurolab, Tris(2-carboxyethyl)phosphine hydrochloride (TCEP) was purchased from Pierce, 384 Well low volume fluorescence plates was purchased from Falcon.
(§6) At first the enzyme is pre-incubated for 15 min. at 15° C. in aqueous solution with corresponding amounts of inhibitors according to this invention. Then the phosphorylation reaction is started by adding a reaction mixture, containing ATP, Peptide and PT66, and subsequent shaking. The proceeding of this reaction is immediately monitored using time resolved fluorescence spectroscopy in a suitable well plate reader.
(§7) The IC50-values can be obtained from the reaction rates by using a non-linear curve fit (XLfit software (ID Business Solution Ltd., Guilford, Surrey, UK))

For the next test, the target named is T2, Lck (p56^kk, active) (Homo sapiens, UniProt P06239).
T2 construct: purchased UBI, Upstate Biotech, Inc
T2 sequence (P06239 whole entry, species assumed): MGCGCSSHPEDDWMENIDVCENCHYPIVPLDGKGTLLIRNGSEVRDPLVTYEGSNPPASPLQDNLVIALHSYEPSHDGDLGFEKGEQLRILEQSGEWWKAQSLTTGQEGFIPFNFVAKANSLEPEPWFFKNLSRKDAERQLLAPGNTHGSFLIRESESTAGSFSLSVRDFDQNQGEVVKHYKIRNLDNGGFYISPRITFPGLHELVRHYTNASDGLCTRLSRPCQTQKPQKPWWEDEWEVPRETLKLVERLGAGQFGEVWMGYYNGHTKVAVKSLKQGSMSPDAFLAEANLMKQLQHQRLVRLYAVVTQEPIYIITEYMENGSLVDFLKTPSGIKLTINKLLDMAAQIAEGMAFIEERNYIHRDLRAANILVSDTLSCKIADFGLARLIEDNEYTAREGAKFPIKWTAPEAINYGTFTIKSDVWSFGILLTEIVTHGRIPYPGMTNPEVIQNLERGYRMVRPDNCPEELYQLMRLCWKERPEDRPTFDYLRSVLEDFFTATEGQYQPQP
The test can be described thus: SRC-Inhibitor-Assay, time-resolved fluorescence kinase assay (Lck). It is filed as biochemical. Conditions: ATP 5 μM; enzyme pre-incubated with inhibitor 15 min at 15° C. The method, then: as §1, §2, §3, §4, §5, §6, §7

Each structure is given as a SMILES string.

This note sets out measurements from patent US7494993B2, “Amide derivatives of 7-amino-3-phenyl-dihydropyrimido[4,5-d]pyrimidinones, their manufacture and use as pharmaceutical agents” (Hoffmann-La Roche Inc., priority 2004, dated 2009).

T1 sequence (P12931 whole entry, species assumed): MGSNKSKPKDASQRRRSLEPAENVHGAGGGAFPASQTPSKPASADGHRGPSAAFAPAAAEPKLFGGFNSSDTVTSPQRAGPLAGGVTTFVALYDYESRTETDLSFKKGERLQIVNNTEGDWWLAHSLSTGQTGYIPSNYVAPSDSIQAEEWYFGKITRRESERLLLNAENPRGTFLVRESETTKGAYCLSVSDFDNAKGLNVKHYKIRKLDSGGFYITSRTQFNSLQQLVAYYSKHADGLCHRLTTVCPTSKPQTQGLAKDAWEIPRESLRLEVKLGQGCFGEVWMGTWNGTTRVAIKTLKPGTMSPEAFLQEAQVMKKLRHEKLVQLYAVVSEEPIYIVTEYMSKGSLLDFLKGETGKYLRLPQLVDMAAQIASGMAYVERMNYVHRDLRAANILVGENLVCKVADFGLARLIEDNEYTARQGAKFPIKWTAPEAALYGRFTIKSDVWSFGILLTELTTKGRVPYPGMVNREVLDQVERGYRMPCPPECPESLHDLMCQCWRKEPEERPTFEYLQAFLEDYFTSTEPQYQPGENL

Consider `CN1C(=O)N(c2cc(NC(=O)c3ccc(N4CCOCC4)cc3)ccc2Cl)Cc2cnc(N)nc21` [Example 2-7, N-[3-(7-Amino-1-methyl-2-oxo-1,4-dihydro-2H-pyrimido[4,5-d]pyrimidin-3-yl)-4-chloro-phenyl]-4-morpholin-4-yl-benzamide], for which the half-inhibitory concentration (IC50) came to 0.0735 µM in test [1] and 0.168 µM at Lck (p56^kk, active).

`CN1C(=O)N(c2cc(NC(=O)c3ccc(-c4ccccc4)cc3)ccc2Cl)Cc2cnc(N)nc21` [Example 1, Biphenyl-4-carboxylic acid[3-(7-amino-1-methyl-2-oxo-1,4-dihydro-2H-pyrimido[4,5-d]pyrimidin-3-yl)-4-chloro-phenyl]-amide]: the IC50 lay within 0.05 to 0.15 µM in test [1] and 0.05 to 0.15 µM against Lck (p56^kk, active).

On to `CN1C(=O)N(c2cc(NC(=O)c3ccc(-c4ccc[nH]4)cc3)ccc2Cl)Cc2cnc(N)nc21` [Example 2-24, N-[3-(7-Amino-1-methyl-2-oxo-1,4-dihydro-2H-pyrimido[4,5-d]pyrimidin-3-yl)-4-chloro-phenyl]-4-(1H-pyrrol-2-yl)-benzamide], for which the IC50 in test [1] was in the range of 0.05 to 0.15 µM; against Lck (p56^kk, active), 0.05 to 0.15 µM.

As to `CN1C(=O)N(c2cc(NC(=O)c3cccc(-c4ccccc4)c3)ccc2Cl)Cc2cnc(N)nc21` [Example 2-3, Biphenyl-3-carboxylic acid [3-(7-amino-1-methyl-2-oxo-1,4-dihydro-2H-pyrimido[4,5-d]pyrimidin-3-yl)-4-chloro-phenyl]-amide], the half-inhibitory concentration (IC50) was in the range of 0.05 to 0.15 µM in test [1] and 0.05 to 0.15 µM on Lck (p56^kk, active).

Regarding `CN1C(=O)N(c2cc(NC(=O)c3cccc4ccccc34)ccc2Cl)Cc2cnc(N)nc21` [Example 2-15, Naphthalene-1-carboxylic acid [3-(7-amino-1-methyl-2-oxo-1,4-dihydro-2H-pyrimido[4,5-d]pyrimidin-3-yl)-4-chloro-phenyl]-amide], the IC50 in test [1] is 0.05 to 0.15 µM; against Lck (p56^kk, active), 0.05 to 0.15 µM.

Regarding `CN1C(=O)N(c2cc(NC(=O)C=Cc3ccccc3)ccc2Cl)Cc2cnc(N)nc21` [Example 2-14, N-[3-(7-Amino-1-methyl-2-oxo-1,4-dihydro-2H-pyrimido[4,5-d]pyrimidin-3-yl)-4-chloro-phenyl]-3-phenyl-acrylamide], the half-inhibitory concentration (IC50) in test [1] was 0.041 µM; on Lck (p56^kk, active), 0.0385 µM.

Take `CN1C(=O)N(c2cc(NC(=O)c3ccc(-c4ccccn4)cc3)ccc2Cl)Cc2cnc(N)nc21` [Example 2-22, N-[3-(7-Amino-1-methyl-2-oxo-1,4-dihydro-2H-pyrimido[4,5-d]pyrimidin-3-yl)-4-chloro-phenyl]-4-pyridin-2-yl-benzamide]: the concentration for half-maximal inhibition (IC50) in test [1] lay within 0.05 to 0.15 µM; against Lck (p56^kk, active) it was 0.05 to 0.15 µM.
